The first assay deals with T1, GLP-1 Receptor (Homo sapiens, UniProt P43220).
T1 construct: host or cells: HEK293/GLP1R/CRE-LUC (HEK293/CRE-Luc stably expressing GLP-1R)
T1 sequence (P43220 24-463): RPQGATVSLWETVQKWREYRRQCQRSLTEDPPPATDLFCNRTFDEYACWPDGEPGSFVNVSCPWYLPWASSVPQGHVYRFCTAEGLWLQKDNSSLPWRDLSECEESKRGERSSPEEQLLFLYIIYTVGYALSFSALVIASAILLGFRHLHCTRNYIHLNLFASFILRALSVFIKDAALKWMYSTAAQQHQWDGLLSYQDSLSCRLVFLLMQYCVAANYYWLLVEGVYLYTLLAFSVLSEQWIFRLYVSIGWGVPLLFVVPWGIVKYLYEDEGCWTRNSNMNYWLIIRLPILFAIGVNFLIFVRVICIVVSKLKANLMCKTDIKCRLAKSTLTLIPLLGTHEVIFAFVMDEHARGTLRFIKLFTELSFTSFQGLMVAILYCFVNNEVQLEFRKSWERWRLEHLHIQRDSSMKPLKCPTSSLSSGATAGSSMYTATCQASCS
The experiment in a line: GLP-1R agonist cAMP stimulation assay (HEK293/GLP1R/CRE-LUC cells, HTRF cAMP dynamic 2 kit). The format is cell-based. The note with it: HEK293/CRE-Luc cell line (HDB), 30 min incubation, read-out: GLP1R cAMP Stimulation DR: EC50 (nM) [Species: Human, Assay Cell Line: HDB]. As for the experimental part: Activation of GLP-1 receptor is known to stimulate cyclic AMP (cAMP) production in cells which indicates primary coupling to the Gαs subunit of the G protein heterotrimeric complex.
To optimize functional activity directed toward Gαs coupling, a HEK293/CRE-Luc cell line developed by HDB stably expressing the GLP-1 Receptor was used. 200×concentration of compound working solutions were prepared (Agilent Technologies Bravo) with ½ log serial dilution in 384-well Echo LDV plate (Labcyte, Cat #LP-0200). 50 nL/well 200×concentration of compound working solutions were moved to 384-well white low volume plate (Greiner, Cat #784075) using Labcyte ECHO550. 1×10^5 cells/mL HEK293/GLP1R/CRE-LUC(HD Biosciences) cell suspensions prepared with assay buffer[DPBS containing 0.5 mM IBMX (Sigma, Cat #15879) and 0.1% BSA (GENVIEW, Cat #FA016-100g)], 10 uL cell suspensions were added to each well of previous generated assay plate which already contains 50n1 compound at 200× concentration using ThermoFisher Multidrop Combi (1000 cells/well). Seal the plate and incubate at 37° C. with 5% CO2 for 30 min.
After incubation the cAMP assay signal was generated using cAMP dynamic 2 Kit (Cisbio). 5 μL cAMP-d2 working solution was added to each well, followed with 5 μL Anti-cAMP antibody-cryptate working solution added to each well using ThermoFisher Multidrop Combi. Incubate at room temperature for 1 hour protected from light. Read the fluorescence at 665 and 615 nm with Reader PerkinElmer EnVision. % Activity=100%×(mean RLU of test sample−mean RLU of vehicle control)/(mean RLU of MAX control−mean RLU of vehicle control))
On the technique in general: Time-resolved FRET reads energy transfer from a long-lived donor to a nearby acceptor.
As for `CCP(=O)(CC)c1ccc(-n2ccn(-c3c(-c4cc(C)c(F)c(C)c4)nn4c3C(C)N(C(=O)c3cc5cc(C6CCC(F)(F)CC6)ccc5n3[C@@]3(c5noc(=O)[nH]5)C[C@@H]3C)CC4)c2=O)cc1NC` (single isomer, unassigned) [Compound 116a], the EC50 was found to be 0.42 nM.

With `CCP(=O)(CC)c1ccc(-n2ccn(-c3c(-c4cc(C)c(F)c(C)c4)nn4c3C(C)N(C(=O)c3cc5cc(N6CCOC(C)(C)C6)ccc5n3[C@@]3(c5noc(=O)[nH]5)C[C@@H]3C)CC4)c2=O)cc1NC` (single isomer, unassigned) [Compound 115a], the EC50 worked out at 0.15 nM.

As for `CCP(=O)(CC)c1ccc(-n2ccn(-c3c(-c4cc(C)c(F)c(C)c4)nn4c3C(C)N(C(=O)c3cc5cc(C6CCOCC6)ccc5n3C3(c5noc(=O)[nH]5)CC3)CC4)c2=O)cc1NC` (stereo not shown) [Compound 104, 3-(1-(2-(3-(3-(4-(diethylphosphoryl)-3-(methylamino)phenyl)-2-oxo-2,3-dihydro-1H-imidazol-1-yl)-2-(4-fluoro-3,5-dimethylphenyl)-4-methyl-4,5,6,7-tetrahydropyrazolo[1,5-a]pyrazine-5-carbonyl)-5-(tetrahydro-2H-pyran-4-yl)-1H-indol-1-yl)cyclopropyl)-1,2,4-oxadiazol-5(4H)-one], the EC50 was 0.18 nM.

`CCP(=O)(CC)c1ccc(-n2ccn(-c3c(-c4cc(C)c(F)c(C)c4)nn4c3C(C)N(C(=O)c3cc5cc(C6CCOCC6)ccc5n3[C@@]3(c5noc(=O)[nH]5)C[C@@H]3C)CC4)c2=O)cc1NC` (single isomer, unassigned) [Compound 111a]: the EC50 came to 0.042 nM.

For `Cc1cc(-c2nn3c(c2-n2ccn(-c4ccc5c(cnn5C)c4F)c2=O)C(C)N(C(=O)c2cc4cc(C5CCOCC5)ccc4n2[C@@]2(c4noc(=O)[nH]4)C[C@@H]2C)CC3)cc(C)c1F` (stereo partly drawn) [Compound 109a, 3-((1S,2S)-1-(2-(3-(3-(4-fluoro-1-methyl-1H-indazol-5-yl)-2-oxo-2,3-dihydro-1H-imidazol-1-yl)-2-(4-fluoro-3,5-dimethylphenyl)-4-methyl-4,5,6,7-tetrahydropyrazolo[1,5-a]pyrazine-5-carbonyl)-5-(tetrahydro-2H-pyran-4-yl)-1H-indol-1-yl)-2-methylcyclopropyl)-1,2,4-oxadiazol-5(4H)-one], the EC50 worked out at 0.18 nM.

As to `CCP(=O)(CC)c1ccc(-n2ccn(-c3c(-c4cc(C)c(F)c(C)c4)nn4c3C(C)N(C(=O)c3cc5cc([C@H]6CCOC(C)(C)C6)ccc5n3[C@@]3(c5noc(=O)[nH]5)C[C@@H]3C)CC4)c2=O)cc1NC` (single isomer, unassigned) [Compound 113a], the EC50 was 0.17 nM.

`CCP(=O)(CC)c1ccc(-n2ccn(-c3c(-c4cc(C)c(F)c(C)c4)nn4c3C(C)N(C(=O)c3cc5cc(C6CCOCC6)ccc5n3[C@@]3(c5noc(=O)[nH]5)C[C@@H]3C)CC4)c2=O)cc1NC` (mixture of isomers) [Compound 108a, 3-((1S,2S)-1-(2-(3-(3-(4-(diethylphosphoryl)-3-(methylamino)phenyl)-2-oxo-2,3-dihydro-1H-imidazol-1-yl)-2-(4-fluoro-3,5-dimethylphenyl)-4-methyl-4,5,6,7-tetrahydropyrazolo[1,5-a]pyrazine-5-carbonyl)-5-(tetrahydro-2H-pyran-4-yl)-1H-indol-1-yl)-2-methylcyclopropyl)-1,2,4-oxadiazol-5(4H)-one]: the EC50 came out at 0.1 nM.

`Cc1cc(-c2nn3c(c2-n2ccn(-c4ccc5c(cnn5C)c4)c2=O)CN(C(=O)c2cc4cc(C5CCOCC5)ccc4n2C2(c4noc(=O)[nH]4)CC2)CC3)cc(C)c1F` [Compound 101, 3-(1-(2-(2-(4-fluoro-3,5-dimethylphenyl)-3-(3-(1-methyl-1H-indazol-5-yl)-2-oxo-2,3-dihydro-1H-imidazol-1-yl)-4,5,6,7-tetrahydropyrazolo[1,5-a]pyrazine-5-carbonyl)-5-(tetrahydro-2H-pyran-4-yl)-1H-indol-1-yl)cyclopropyl)-1,2,4-oxadiazol-5(4H)-one]: the EC50 came out at 3.41 nM.

As to `Cc1cc(-c2nn3c(c2-n2ccn(-c4ccc5c(cnn5C)c4)c2=O)C(C)N(C(=O)c2cc4cc(C5CCOCC5)ccc4n2C2(c4noc(=O)[nH]4)CC2)CC3)cc(C)c1F` (stereo not shown) [Compound 103, 3-(1-(2-(2-(4-fluoro-3,5-dimethylphenyl)-4-methyl-3-(3-(1-methyl-1H-indazol-5-yl)-2-oxo-2,3-dihydro-1H-imidazol-1-yl)-4,5,6,7-tetrahydropyrazolo[1,5-a]pyrazine-5-carbonyl)-5-(tetrahydro-2H-pyran-4-yl)-1H-indol-1-yl)cyclopropyl)-1,2,4-oxadiazol-5(4H)-one], the EC50 is 0.29 nM.

On to `Cc1cc(-c2nn3c(c2-n2ccn(-c4ccc5c(cnn5C)c4)c2=O)CN(C(=O)c2cc4cc(C5CCOCC5)ccc4n2C2(c4noc(=O)[nH]4)CCC2)CC3)cc(C)c1F` [Compound 102, 3-(1-(2-(2-(4-fluoro-3,5-dimethylphenyl)-3-(3-(1-methyl-1H-indazol-5-yl)-2-oxo-2,3-dihydro-1H-imidazol-1-yl)-4,5,6,7-tetrahydropyrazolo[1,5-a]pyrazine-5-carbonyl)-5-(tetrahydro-2H-pyran-4-yl)-1H-indol-1-yl)cyclobutyl)-1,2,4-oxadiazol-5(4H)-one], for which the EC50 came to 3300 nM.

As for `Cc1cc(-c2nn3c(c2-n2ccn(-c4ccc5c(cnn5C)c4F)c2=O)C(C)N(C(=O)c2cc4cc(C5CCOCC5)ccc4n2[C@@]2(c4noc(=O)[nH]4)C[C@@H]2C)CC3)cc(C)c1F` (single isomer, unassigned) [Compound 110a], the EC50 stood at 0.13 nM.

`CCP(=O)(CC)c1ccc(-n2ccn(-c3c(-c4cc(C)c(F)c(C)c4)nn4c3C(C)N(C(=O)c3cc5cc(N6CCOCC6)ccc5n3[C@@]3(c5noc(=O)[nH]5)C[C@@H]3C)CC4)c2=O)cc1NC` (single isomer, unassigned) [Compound 114a]: the EC50 is 0.068 nM.

Regarding `CCP(=O)(CC)c1ccc(-n2ccn(-c3c(-c4cc(C)c(F)c(C)c4)nn4c3C(C)N(C(=O)c3cc5cc(C6CCOCC6)ccc5n3[C@@]3(c5noc(=O)[nH]5)C[C@@H]3C)CC4)c2=O)cc1NC` (single isomer, unassigned) [Compound 112a], the EC50 amounted to 42 nM.

Take `Cc1cc(-c2nn3c(c2-n2ccn(-c4ccc5c(cnn5C)c4)c2=O)CN(C(=O)c2cc4cc(C5CCOCC5)ccc4n2[C@@]2(C(=O)O)C[C@@H]2C)CC3)cc(C)c1F` [Compound 106a, (1S,2S)-1-(2-(2-(4-fluoro-3,5-dimethylphenyl)-3-(3-(1-methyl-1H-indazol-5-yl)-2-oxo-2,3-dihydro-1H-imidazol-1-yl)-4,5,6,7-tetrahydropyrazolo[1,5-a]pyrazine-5-carbonyl)-5-(tetrahydro-2H-pyran-4-yl)-1H-indol-1-yl)-2-methylcyclopropanecarboxylic acid]: the EC50 amounted to 113 nM.

For the compound `Cc1cc(-c2nn3c(c2-n2ccn(-c4ccc5c(cnn5C)c4F)c2=O)C(C)N(C(=O)c2cc4cc([C@H]5CCOC(C)(C)C5)ccc4n2[C@@]2(c4noc(=O)[nH]4)C[C@@H]2C)CC3)cc(C)c1F` (single isomer, unassigned) [Compound 117a], the EC50 was 0.07 nM.

For the compound `Cc1cc(-c2nn3c(c2-n2ccn(-c4ccc5c(cnn5C)c4)c2=O)CN(C(=O)c2cc4cc(C5CCOCC5)ccc4n2[C@@]2(c4noc(=O)[nH]4)C[C@@H]2C)CC3)cc(C)c1F` [Compound 105a, 3-((1S,2S)-1-(2-(2-(4-fluoro-3,5-dimethylphenyl)-3-(3-(1-methyl-1H-indazol-5-yl)-2-oxo-2,3-dihydro-1H-imidazol-1-yl)-4,5,6,7-tetrahydropyrazolo[1,5-a]pyrazine-5-carbonyl)-5-(tetrahydro-2H-pyran-4-yl)-1H-indol-1-yl)-2-methylcyclopropyl)-1,2,4-oxadiazol-5(4H)-one], the EC50 came to 1.86 nM.

Staying with this assay, now noted: HEK293/CRE-Luc cell line (HDB), 30 min incubation, read-out: GLP1R cAMP Stimulation DR: pEC50 (M) [Species: Human, Assay Cell Line: HDB] (converted).
As for `Cc1cc(-c2nn3c(c2-n2ccn(-c4ccc5c(cnn5C)c4)c2=O)CN(C(=O)c2cc4cc(C5CCOCC5)ccc4n2C2(c4noc(=O)[nH]4)CC2)CC3)cc(C)c1F` [Compound 101, 3-(1-(2-(2-(4-fluoro-3,5-dimethylphenyl)-3-(3-(1-methyl-1H-indazol-5-yl)-2-oxo-2,3-dihydro-1H-imidazol-1-yl)-4,5,6,7-tetrahydropyrazolo[1,5-a]pyrazine-5-carbonyl)-5-(tetrahydro-2H-pyran-4-yl)-1H-indol-1-yl)cyclopropyl)-1,2,4-oxadiazol-5(4H)-one], the EC50 was 3.31 nM.

On to `Cc1cc(-c2nn3c(c2-n2ccn(-c4ccc5c(cnn5C)c4)c2=O)CN(C(=O)c2cc4cc(C5CCOCC5)ccc4n2C2(c4noc(=O)[nH]4)CCC2)CC3)cc(C)c1F` [Compound 102, 3-(1-(2-(2-(4-fluoro-3,5-dimethylphenyl)-3-(3-(1-methyl-1H-indazol-5-yl)-2-oxo-2,3-dihydro-1H-imidazol-1-yl)-4,5,6,7-tetrahydropyrazolo[1,5-a]pyrazine-5-carbonyl)-5-(tetrahydro-2H-pyran-4-yl)-1H-indol-1-yl)cyclobutyl)-1,2,4-oxadiazol-5(4H)-one], for which the EC50 is 2190 nM.

In the case of `CNc1cc(-n2ccn(-c3c(-c4cc(C)c(F)c(C)c4)nn4c3C(C)N(C(=O)c3cc5cc(C6CCOCC6)ccc5n3[C@@]3(c5noc(=O)[nH]5)C[C@@H]3C)CC4)c2=O)ccc1P(C)(C)=O` (single isomer, unassigned) [Compound 118a], the EC50 was 0.0316 nM.
